As a reminder, the GI50 is the concentration at which growth is held to half of that of the control. A higher GI50 goes with lower sensitivity of the cells. One may read the DC50 as the midpoint of the concentration-degradation curve.

Format in all cases: cell-based
One assay concerns HL60 cells. Description: HL60 cell killing experiment (CellTiter-Glo cell viability). The conditions noted are these: CTG luminescence. As for the experimental part: HL60 cell lines were purchased from ATCC (Cat #ATCC® CCL-240™), IMDM media were purchased from ATCC (Cat #ATCC® 30-2005™), FBS was purchased from Gibco (Cat #10091148), celltiter-glo luminescent cell viability assay was purchased from promega (Cat #G7572), and 96-well plates were purchased from corning (Cat #3610).
(§1) The effect of compounds on the growth of HL60 cells was determined by measuring cell viability. Firstly, cells in the logarithmic growth phase were collected and centrifuged, and the culture supernatant was discarded. The centrifuged cells were resuspended in a fresh complete medium, and the cell density was adjusted to 5×10^4 cells/mL. The resuspended cells were inoculated into two opaque 96-well cell culture plates at 100 μL of cell suspension per well, and the cell culture plates were incubated in a cell incubator at 37° C. for 4 h. After 4 h, dilutions (20 μL) of compounds with different concentrations were added. After one of the cell plates was cooled to room temperature, 60 μL of CTG reagent was added, and the luminescence values were read on the instrument as G0. The other one was incubated in a cell incubator for 48 h. After 48 h, 60 μL of CTG reagent was added, and the luminescence values were read on the instrument as G3.
(§2) According to the corresponding proliferation rate and concentration of each gradient concentration well, a gradient curve of cell proliferation was fitted using XLFit software, and the GI50 values of compounds were calculated.
In general terms: Cellular ATP, detected with luciferase, serves as a proxy for viable cell number.

A further assay relates to Hep3B cells. Description: Hep3B cell killing experiment (CellTiter-Glo cell viability). The conditions noted are these: Homo sapiens, 48 h incubation, CTG luminescence. As for the experimental part: Hep3B cell lines were purchased from ATCC (Cat #ATCC® HB-8064™), EMEM media were purchased from ATCC (Cat #ATCC® 30-2003™), FBS was purchased from Gibco (Cat #10091148), celltiter-glo luminescent cell viability assay was purchased from promega (Cat #G7572), and 96-well plates were purchased from coming (Cat #3610).
The effect of compounds on the growth of Hep3B cells was determined by measuring cell viability and growth rate. Firstly, the cells were digested with pancreatin, and the digestion was then terminated with medium. The cells were centrifuged, and the supernatant was discarded. The centrifuged cells were resuspended in a fresh complete medium, and the cell density was adjusted to 5×10^4 cells/mL. The resuspended cells were inoculated into two identical opaque 96-well cell culture plates at 100 μL of cell suspension per well, and the cell culture plates were incubated in a cell incubator at 37° C. overnight. The next day, dilutions (20 μL) of compounds with different concentrations were added. After one of the cell plates was cooled to room temperature, 60 μL of CTG reagent was added. The luminescence values were read on the instrument as G0. The other one was incubated in a cell incubator for 48 h. After 48 h, 60 μL of CTG reagent was added, and the luminescence values were read on the instrument as G3.
as §2

The next assay has as its system NCI-H929 cells. Description: NCI-H929 cell killing experiment (CellTiter-Glo cell viability). The note with it: Homo sapiens, 48 h incubation, CTG luminescence. As for the experimental part: NCI-H929 cell lines were purchased from ATCC (Cat #ATCC® CRL-9068™), RPMI1640 media were purchased from ATCC (Cat #ATCC® 30-2001™), FBS was purchased from Gibco (Cat #10091148), celltiter-glo luminescent cell viability assay was purchased from promega (Cat #G7572), and 96-well plates were purchased from coming (Cat #3610).
as §1, with “2. Method The effect” for “The effect”, “growth of NCI-H929 cells was” for “growth of HL60 cells was”, “measuring cell viability and growth rate. Firstly, cells” for “measuring cell viability. Firstly, cells”, “into two identical opaque 96-well” for “into two opaque 96-well”
as §2

In the next assay the target is T1, GSPT1 (Homo sapiens, UniProt P15170+Q96SW2).
T1 construct: host or cells: HEK293
T1 sequence (P15170 whole entry): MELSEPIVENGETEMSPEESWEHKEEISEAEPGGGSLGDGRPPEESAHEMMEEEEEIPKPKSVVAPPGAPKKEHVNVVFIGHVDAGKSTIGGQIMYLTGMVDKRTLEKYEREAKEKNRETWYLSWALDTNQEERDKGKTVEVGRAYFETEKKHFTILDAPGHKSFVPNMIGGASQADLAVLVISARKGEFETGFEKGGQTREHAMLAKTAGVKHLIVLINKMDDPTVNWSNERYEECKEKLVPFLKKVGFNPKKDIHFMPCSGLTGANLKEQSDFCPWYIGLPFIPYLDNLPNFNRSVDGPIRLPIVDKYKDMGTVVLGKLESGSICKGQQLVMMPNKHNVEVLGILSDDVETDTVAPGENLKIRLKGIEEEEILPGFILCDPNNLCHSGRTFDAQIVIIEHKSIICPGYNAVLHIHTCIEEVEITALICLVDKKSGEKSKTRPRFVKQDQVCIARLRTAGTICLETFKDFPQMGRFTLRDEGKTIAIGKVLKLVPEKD
T1 sequence (Q96SW2 whole entry): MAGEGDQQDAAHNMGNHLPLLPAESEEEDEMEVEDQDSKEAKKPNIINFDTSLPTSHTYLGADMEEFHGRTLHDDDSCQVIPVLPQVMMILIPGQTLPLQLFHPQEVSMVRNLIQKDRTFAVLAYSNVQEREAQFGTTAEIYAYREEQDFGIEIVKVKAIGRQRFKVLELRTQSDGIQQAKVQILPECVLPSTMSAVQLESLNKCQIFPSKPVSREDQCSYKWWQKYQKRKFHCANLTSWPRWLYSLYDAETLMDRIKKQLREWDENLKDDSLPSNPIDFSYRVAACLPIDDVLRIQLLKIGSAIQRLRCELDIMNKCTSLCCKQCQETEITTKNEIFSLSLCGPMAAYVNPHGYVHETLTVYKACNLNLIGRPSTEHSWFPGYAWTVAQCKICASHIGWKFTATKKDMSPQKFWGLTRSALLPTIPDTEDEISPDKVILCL
T1 sequence (Q16531 whole entry partner): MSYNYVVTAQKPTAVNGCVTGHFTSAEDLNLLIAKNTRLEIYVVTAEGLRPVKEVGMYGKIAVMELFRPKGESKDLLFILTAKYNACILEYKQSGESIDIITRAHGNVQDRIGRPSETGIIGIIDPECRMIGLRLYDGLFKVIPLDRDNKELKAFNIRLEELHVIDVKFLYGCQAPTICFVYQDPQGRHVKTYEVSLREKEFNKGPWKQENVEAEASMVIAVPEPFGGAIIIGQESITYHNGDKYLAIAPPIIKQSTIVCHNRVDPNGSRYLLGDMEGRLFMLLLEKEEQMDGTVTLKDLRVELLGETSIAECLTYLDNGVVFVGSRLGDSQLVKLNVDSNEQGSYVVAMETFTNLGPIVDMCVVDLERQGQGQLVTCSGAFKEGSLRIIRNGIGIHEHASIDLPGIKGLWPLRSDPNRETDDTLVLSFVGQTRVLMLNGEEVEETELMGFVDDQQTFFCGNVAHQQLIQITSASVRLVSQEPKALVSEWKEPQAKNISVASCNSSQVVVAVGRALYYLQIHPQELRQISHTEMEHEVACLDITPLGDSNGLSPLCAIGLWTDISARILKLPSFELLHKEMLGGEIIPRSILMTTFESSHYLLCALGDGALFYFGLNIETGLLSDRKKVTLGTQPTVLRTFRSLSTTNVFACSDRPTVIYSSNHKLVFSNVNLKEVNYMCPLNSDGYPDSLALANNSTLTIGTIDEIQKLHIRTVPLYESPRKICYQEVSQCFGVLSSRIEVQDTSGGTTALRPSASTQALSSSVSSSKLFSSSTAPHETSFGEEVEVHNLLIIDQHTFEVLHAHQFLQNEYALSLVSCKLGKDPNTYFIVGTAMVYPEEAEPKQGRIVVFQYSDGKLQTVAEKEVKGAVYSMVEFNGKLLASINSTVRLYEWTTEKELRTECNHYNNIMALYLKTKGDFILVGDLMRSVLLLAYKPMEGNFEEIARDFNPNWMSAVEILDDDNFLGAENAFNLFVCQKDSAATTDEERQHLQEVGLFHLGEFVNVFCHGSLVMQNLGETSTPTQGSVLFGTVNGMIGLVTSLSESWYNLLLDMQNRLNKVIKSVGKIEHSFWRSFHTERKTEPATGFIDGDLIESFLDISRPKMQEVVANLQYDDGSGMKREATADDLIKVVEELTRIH
Description: Degradation of GSPT1 by the compounds (HiBiT signal in GSPT1/HEK293 hibit cells). The note with it: 6 h incubation, Nano Glo HiBiT Lytic Detection. Here is the method: GSPT1/HEK293 hibit cell lines were constructed by Shanghai BioDuro Co., Ltd., HEK293 cell lines were purchased from ATCC (Cat #ATCC® CRL-1573™), DMEM media were purchased from ATCC (Cat #ATCC® 30-2002™), FBS was purchased from Gibco (Cat #10091148), Nano Glo HiBiT Lytic Detection System was purchased from Promega (Cat #N3040), and 96-well plates were purchased from coming (Cat #3610).
The degradation of GSPT1 by the compounds was determined by measuring the intensity of hibit signals in cells. Firstly, the cells were digested with pancreatin, and the digestion was then terminated with medium. The cells were centrifuged, and the supernatant was discarded. The centrifuged cells were resuspended in a fresh complete medium, and the cell density was adjusted to 2.5×10^4 cells/mL. The resuspended cells were inoculated into an opaque 96-well cell culture plate at 100 μL of cell suspension per well, and the cell culture plate was incubated in a cell incubator at 37° C. overnight. The next day, dilutions (20 μL) of compounds with different concentrations were added, and the plate was incubated in a cell incubator for 6 h. After 6 h, 60 μL of Nano Glo HiBiT Lytic Detection System reagent was added and the luminescence values were read on the instrument.
According to the corresponding degradation rate and concentration of each gradient concentration well, a gradient curve of degradation rate was fitted using XLFit software, and the DC50 values of compounds were calculated.

Another assay relates to Jurkat cells. Description: Jurkat cell killing experiment (CellTiter-Glo cell viability). The conditions noted are these: Homo sapiens, 48 h incubation, CTG luminescence. As for the experimental part:
Jurkat cell lines were purchased from ATCC (Cat #ATCC® TIB-152™), RPMI1640 media were purchased from ATCC (Cat #ATCC® 30-2001™), FBS was purchased from Gibco (Cat #10091148), celltiter-glo luminescent cell viability assay was purchased from promega (Cat #G7572), and 96-well plates were purchased from coming (Cat #3610).
as §1, with “Jurkat” for “HL60”, “viability and growth rate.” for “viability.”, “two identical” for “two”
as §2

The subject of the next assay is Toledo cells. The assay can be described thus: Toledo cell killing experiment (CellTiter-Glo cell viability). The conditions noted are these: Homo sapiens, 48 h incubation, CTG luminescence. As for the experimental part:
Toledo cell lines were purchased from ATCC (Cat #ATCC® CRL-2631™), RPMI1640 media were purchased from ATCC (Cat #ATCC® 30-2001™), FBS was purchased from Gibco (Cat #10091148), celltiter-glo luminescent cell viability assay was purchased from promega (Cat #G7572), and 96-well plates were purchased from coming (Cat #3610).
as §1, with “Toledo” for “HL60”, “viability and growth rate.” for “viability.”, “two identical” for “two”
as §2

Setting [1] is: Homo sapiens, HL-60, 48 h incubation.

Molecules are shown by their SMILES.

For the compound `Cn1c(C2CCC(NC(=O)C3CC(CNc4cccc5c4C(=O)N(C4CCC(=O)NC4=O)C5=O)C3)CC2)nc2ccncc21` (centres unmarked) [Example 10], the GI50 with HL60 cells (setting [1]) was less than 100 nM; in the assay with Hep3B cells, 6.91 nM; in the assay with NCI-H929 cells it was 19.6 nM. The DC50 at GSPT1 was less than 100 nM.
In the case of `Cn1c2cnccc2nc1[C@H]1CC[C@H](NC(=O)c2cc(CNc3cccc4c3C(=O)N(C3CCC(=O)NC3=O)C4=O)ccn2)CC1` (some centres unmarked) [Example 26], the GI50 was less than 100 nM in the assay on HL60 cells (setting [1]), 2.24 nM in the assay on Jurkat cells, 2.7 nM in the assay with Hep3B cells and 11.7 nM in the assay with Toledo cells. The DC50 on GSPT1 was less than 100 nM.
For `Cn1c(C2CCC(NC(=O)c3cc(CNc4cccc5c4C(=O)N(C4CCC(=O)NC4=O)C5=O)ccn3)CC2)nc2ccncc21` (centres unmarked) [Example 39], the GI50 with HL60 cells (48 h incubation) was less than 100 nM; in the assay on Jurkat cells, 1.73 nM; in the assay with Hep3B cells it was 0.99 nM; in the assay on Toledo cells, 3.58 nM. Moreover, the DC50 on GSPT1 was less than 100 nM.
For `O=C1CCC(N2C(=O)c3cccc(NCc4cccc(C(=O)N[C@H]5CC[C@H](c6nc7cccnc7s6)CC5)c4)c3C2=O)C(=O)N1` (some centres unmarked) [Example 61], the GI50 in the assay with HL60 cells (setting [1]) was less than 100 nM; in the assay with Hep3B cells, 1.48 nM; in the assay with NCI-H929 cells it was 1.08 nM; in the assay on Toledo cells it was 5.31 nM. This compound also showed a DC50 on GSPT1 of less than 100 nM.
For the compound `COc1ccc(CNc2cccc3c2C(=O)N(C2CCC(=O)NC2=O)C3=O)cc1C(=O)N[C@H]1CC[C@H](c2nc3cccnc3s2)CC1` (some centres unmarked) [Example 94], the results for the GI50 in the assay with HL60 cells (setting [1]) and in the assay on Jurkat cells were less than 100 nM and 2.51 nM, respectively. The DC50 on GSPT1 was less than 100 nM.
`COc1ccc(CNc2cccc3c2C(=O)N(C2CCC(=O)NC2=O)C3=O)cc1C(=O)N[C@H]1CC[C@H](c2nc3ccncc3s2)CC1` (some centres unmarked) [Example 99]: the GI50 in the assay on HL60 cells (setting [1]) is less than 100 nM. On GSPT1, this compound came in with a DC50 of less than 100 nM.
In turn, `Cn1c(C2CCC(NC(=O)c3cccc(CNc4cccc5c4C(=O)N(C4CCC(=O)NC4=O)C5=O)c3)CC2)nc2c3cc[nH]c3ncc21` (centres unmarked) [Example 100] registered a GI50 in the assay on HL60 cells (setting [1]) of less than 100 nM. Moreover, the DC50 on GSPT1 is less than 100 nM.
The compound `O=C1CCC(N2C(=O)c3cccc(NCc4cccc(C(=O)NC5CCC(c6nc7ccncc7n6C6COC6)CC5)c4)c3C2=O)C(=O)N1` (centres unmarked) [Example 101] returned a GI50 in the assay on HL60 cells (setting [1]) of less than 100 nM. This compound registered a DC50 on GSPT1 of less than 100 nM.
In the assay on Jurkat cells, `COc1ccc2c(c1)nc([C@H]1CC[C@H](N(C)C(=O)c3cc(CNc4cccc5c4C(=O)N(C4CCC(=O)NC4=O)C5=O)ccn3)CC1)n2C` (some centres unmarked) [Example 105] had a GI50 of 1.3 nM.
Turning to `O=C1CCC(N2C(=O)c3cccc(NCCCCC(=O)NC4CCC(c5nc6c(cnc7[nH]cc(C8CCOCC8)c76)[nH]5)CC4)c3C2=O)C(=O)N1` (centres unmarked) [Example 109], the GI50 in the assay with HL60 cells (setting [1]) is less than 100 nM. For the same compound, the DC50 at GSPT1 was less than 100 nM.
`Cn1c(C2CCC(NC(=O)CCCCNc3cccc4c3C(=O)N(C3CCC(=O)NC3=O)C4=O)CC2)nc2c3c(C4CCCCC4)c[nH]c3ncc21` (centres unmarked) [Example 110] yielded a GI50 in the assay with HL60 cells (setting [1]) of less than 100 nM. The compound also returned a DC50 on GSPT1 of less than 100 nM.
As to `Cn1cc(C2CCOCC2)c2c3nc(C4CCC(NC(=O)CCCCNc5cccc6c5C(=O)N(C5CCC(=O)NC5=O)C6=O)CC4)[nH]c3cnc21` (centres unmarked) [Example 112], the GI50 in the assay with HL60 cells (setting [1]) is less than 100 nM. The compound further displayed a DC50 on GSPT1 of less than 100 nM.
For the compound `Cn1c(C2CCC(NC(=O)CCCCNc3cccc4c3C(=O)N(C3CCC(=O)NC3=O)C4=O)CC2)nc2c3c(C4CCOCC4)c[nH]c3ncc21` (centres unmarked) [Example 113], the GI50 was less than 100 nM in the assay with HL60 cells (setting [1]) and 1.53 nM in the assay on Toledo cells. On GSPT1, this compound gave a DC50 of less than 100 nM.
Compound `O=C1CCC(N2C(=O)c3cccc(NCc4cccc(C(=O)NC5CCC(c6nc7c(cnc8[nH]cc(C9CCOCC9)c87)[nH]6)CC5)c4)c3C2=O)C(=O)N1` (centres unmarked) [Example 115] displayed a GI50 with HL60 cells (setting [1]) of less than 100 nM. At GSPT1, this compound registered a DC50 of less than 100 nM.
Take `O=C1CCC(N2C(=O)c3cccc(NCc4ccc(C(=O)NC5CCC(c6nc7c(cnc8[nH]cc(C9CCOCC9)c87)[nH]6)CC5)cc4)c3C2=O)C(=O)N1` (centres unmarked) [Example 116]: in the assay on HL60 cells (setting [1]), the GI50 is less than 100 nM. For the same compound, the DC50 on GSPT1 was less than 100 nM.
`Cn1c2cc(N)ccc2nc1[C@H]1CC[C@H](NC(=O)c2cc(CNc3cccc4c3C(=O)N(C3CCC(=O)NC3=O)C4=O)ccn2)CC1` (some centres unmarked) [Example 130] registered a GI50 in the assay on HL60 cells (setting [1]) of less than 100 nM. The compound further had a DC50 on GSPT1 of less than 100 nM.

The record behind these values is patent US20250361239A1, “PROTEIN DEGRADERS AND USES THEREOF” (ZHUHAI YUFAN BIOTECHNOLOGIES CO., LTD., priority 2022, published 2025).
